Results published in US11919837B1, “4,4′-naphthalene-1,5-diylbis(diazene-2,1-diyl)dinaphthalen-1-ol as an antioxidant compound” (KING FAISAL UNIVERSITY, priority 2023, dated 2024).

Experiment: DPPH radical scavenging antioxidant test
Type: biochemical
Details: 517 nm; for Inhibition (radical scavenging inhibition): 0.2 mL DPPH (0.75 mM), compound 3 μM in ethanol, 30 min incubation in the dark
Procedure: The antioxidant properties of the 4,4′-naphthalene-1,5-diylbis(diazene-2,1-diyl)dinaphthalen-1-ol were studied by adding 0.2 mL DPPH (0.75 mM)) to compound 4,4′-naphthalene-1,5-diylbis(diazene-2,1-diyl)dinaphthalen-1-01 (III) (3 μM) in ethanol. After 30 min of incubation in the dark, the absorbance was read against a blank at 517 nm. Ascorbic acid (vitamin C) was used as standard antioxidants (positive control). A blank sample was prepared by 0.2 ml of DPPH in 3 ml ethanol. A negative control sample was run using ethanol instead of the sample. The radical scavenging inhibition was calculated using the following equation: […]

Row | SMILES | Inhibition (radical scavenging inhibition) [%] | antioxidant potential compared to vitamin C (in words) (DPPH in vitro test, vitamin C as positive control)
1 | O=C1O[C@H]([C@@H](O)CO)C(O)=C1O [vit c, Ascorbic acid, reference compound] | 74 | 
2 | Oc1ccc(N=Nc2cccc3c(N=Nc4ccc(O)c5ccccc45)cccc23)c2ccccc12 [Product III, 4,4′-naphthalene-1,5-diylbis(diazene-2,1-diyl)dinaphthalen-1-ol] | 54 | high potential as an antioxidant compared to vitamin C
